Source: the C3SDB collision cross section collection
“And” between values parts separate entries of the source, which are not always exact repeats. Equal values may be shown once. One block for each molecule: values may come before it.

Legend:
[1] = instrument: DT, single field, calibrated with Agilent tune mix (Agilent)
[2] = instrument: DT, stepped-field
[3] = [M+H-H2O]+; instrument: TW; calibrated with phosphatidylcholines (ESI+) and phosphatidylethanolamines (ESI-)
[4] = [M+Na]+; instrument: DT; stepped-field

collision cross section (N2) ([1]; [M+H]+): 297.4 Å²
collision cross section (N2) ([2]; [M+Na]+): 301.6 Å²
SMILES: CCCCCCCCCCCCC=CC[C@@H](O)[C@H](COP(=O)([O-])OCC[N+](C)(C)C)NC(=O)CCCCCCCCCCCCCCCCCCCC [SM(39:1)]

collision cross section (N2) [3]: 295.5 Å²
SMILES: CCCCCCCC/C=C\CCCCCCCC(=O)OC[C@H](COP(=O)(O)O[C@H]1C(O)C(O)C(O)[C@@H](OP(=O)(O)O)C1O)OC(=O)CCCCCCC/C=C\CCCCCCCC (some centres not stated) [PIP(36:2)]

collision cross section (N2) [3]: 270.5 Å²
SMILES: CCCCCCCCCCCCCCCCCCCCCC(=O)O[C@@H](CO)COC(=O)CCCCCCCCCCCCC [DG(18:0/18:0)]

collision cross section (N2) ([1]; [M+HCOO]-): 294.5 Å²
collision cross section (N2) ([1]; [M+H]+): 295.1 Å²
collision cross section (N2) ([1]; [M+Na]+): 296.5 Å²
collision cross section (N2) ([2]; [M+Na]+): 301.1 Å²
SMILES: CCCCCCCCCCCCC=CC[C@@H](O)[C@H](CO[C@@H]1O[C@H](CO)[C@@H](O)C(O)C1O)NC(=O)CCCCCCCCCCCCCCCCCCCCC (some centres not stated) [GlcCer(40:1)]

collision cross section (N2) ([1]; [M+H]+): 294.6 Å²
collision cross section (N2) ([2]; [M+Na]+): 299.9 Å²
SMILES: CCCCCCCCCCCCC=CC[C@@H](O)[C@H](COP(=O)([O-])OCC[N+](C)(C)C)NC(=O)CC=CCC=CCCCCCCCCCCCCCCC [SM(40:3)]

collision cross section (N2) ([1]; [M+H]+): 290.8 Å²
collision cross section (N2) ([2]; [M+Na]+): 294.8 Å²
SMILES: CCCCCCCCCCCCC=CC[C@@H](O)[C@H](COP(=O)([O-])OCC[N+](C)(C)C)NC(=O)CCCCCCCCCCCCCCCCCC [SM(37:1)]

collision cross section (N2) ([1]; [M+HCOO]-): 283.3 Å²
collision cross section (N2) ([1]; [M+H]+): 284.1 Å²
collision cross section (N2) ([1]; [M+Na]+): 283.5 Å²
collision cross section (N2) ([2]; [M+Na]+): 286.7 Å²
SMILES: CCCCCCCCCCCCC=CC[C@@H](O)[C@H](CO[C@@H]1O[C@H](CO)[C@@H](O)C(O)C1O)NC(=O)CCCCCCCCCCCCCCCCC (some centres not stated) [GlcCer(36:1)]

collision cross section (N2) ([1]; [M+HCOO]-): 299.4 Å²
collision cross section (N2) ([1]; [M+H]+): 301.5 Å²
collision cross section (N2) ([1]; [M+Na]+): 302.8 Å²
collision cross section (N2) ([2]; [M+Na]+): 307.5 Å²
SMILES: CCCCCCCCCCCCC=CC[C@@H](O)[C@H](CO[C@@H]1O[C@H](CO)[C@@H](O)C(O)C1O)NC(=O)CCCCCCCCCCCCCCCCCCCCCCC (some centres not stated) [GlcCer(42:1)]

collision cross section (N2) ([2]; [M+Na]+): 311.8 Å²
SMILES: CC/C=C\C/C=C\C/C=C\C/C=C\C/C=C\C/C=C\CCC(=O)OC[C@H](COP(=O)(O)OC[C@H](N)C(=O)O)OC(=O)CCCCCCCCC/C=C\CCCCCCCCCC [PS(44:7)]

collision cross section (N2) ([2]; [M+Na]+): 304.7 Å²
SMILES: CC/C=C\C/C=C\C/C=C\C/C=C\C/C=C\CCCC(=O)OC[C@H](COP(=O)(O)OC[C@H](N)C(=O)O)OC(=O)CCCCCCCCCCC/C=C\C/C=C\CCCCC [PS(42:7)]

collision cross section (N2) ([2]; [M+K]+): 296.6 Å²
SMILES: CC/C=C\C/C=C\C/C=C\C/C=C\C/C=C\C/C=C\CCC(=O)O[C@H](COC(=O)CCCCCCC/C=C\CCCCC)COP(=O)([O-])OCC[N+](C)(C)C [PC(37:7)]

collision cross section (N2) ([2]; [M+H]+): 285.9 Å²
SMILES: CCC(C)[C@H](N)C(=O)NCC(=O)N[C@@H](CC(=O)O)C(=O)N[C@@H](Cc1ccc(O)cc1)C(=O)N[C@@H](C)C(=O)NCC(=O)N[C@H](C(=O)N[C@@H](CCCCN)C(=O)O)C(C)CC (some centres not stated) [IGDYAGIK]

collision cross section (N2) ([2]; [M+H]+): 273.3 Å²
SMILES: CC(C)C[C@H](NC(=O)[C@H](CC(=O)O)NC(=O)[C@H](C)NC(=O)[C@H](CC(C)C)NC(=O)[C@@H](N)Cc1c[nH]cn1)C(=O)N[C@@H](CO)C(=O)N[C@@H](CCCCN)C(=O)O [HLADLSK]

collision cross section (N2) ([2]; [M+Na]+): 307.8 Å²
SMILES: CCCCCCCCCCCCC=CC[C@@H](O)[C@H](CO[C@@H]1O[C@H](CO)[C@@H](O)C(O)C1O)NC(=O)CC=CCCCCCCCCCCCCCCCCCCCCC (some centres not stated) [GlcCer(43:2)]

collision cross section (N2) ([2]; [M+Na]+): 295.9 Å²
SMILES: CCCC=CCC=CCC=CCC=CCC=CCC(=O)OC[C@H](COP(=O)(O)OCC[N+](C)(C)C)OC(=O)CC=CCC=CCC=CCC=CCC=CCCC [PC(38:10)]

collision cross section (N2) ([1]; [M+H]+): 298.5 Å²
collision cross section (N2) ([2]; [M+Na]+): 302.5 Å²
SMILES: CCCCCCCCCCCCC=CC[C@@H](O)[C@H](CO[C@@H]1O[C@H](CO)[C@@H](O)C(O)C1O)NC(=O)CCCCCCCCCCCCCCCCCCCCCC (some centres not stated) [GlcCer(41:1)]

collision cross section (N2) ([2]; [M+K]+): 295.9 Å²
SMILES: CCCCC/C=C\C/C=C\CCCCCCCCCC(=O)OC[C@H](COP(=O)(O)OCCN)OC(=O)CCCCCCCCCCCCCCCCCC [PE(39:2)]

collision cross section (N2) ([2]; [M+Na]+): 278.2 Å²
SMILES: CCCC/C=C\CCCCCCCC(=O)OC[C@H](COP(=O)(O)OCCN)OC(=O)CCCCC/C=C\C/C=C\C/C=C\C/C=C\CCCCC [PE(36:5)]

collision cross section (N2) ([2]; [M+H]+): 291.7 Å²
SMILES: CCC(C)[C@H](NC(=O)[C@H](CC(N)=O)NC(=O)[C@H](CCC(=O)O)NC(=O)[C@H](C)NC(=O)[C@H](CC(C)C)NC(=O)[C@@H](N)CC(N)=O)C(=O)N[C@@H](CO)C(=O)N[C@@H](CCCNC(=N)N)C(=O)O (some centres not stated) [NLAENISR]

collision cross section (N2) ([2]; [M+K]+): 212.7 Å²
collision cross section (N2) ([2]; [M+Na]+): 210.7 Å²
collision cross section (N2) ([2]; [M+Rb]+): 218.7 Å² and 229.7 Å²
SMILES: OC[C@H]1OC(OC[C@H]2OC(O[C@]3(CO)O[C@H](CO)[C@@H](O)[C@@H]3O)[C@H](O)[C@@H](O)[C@@H]2O)[C@H](O)[C@@H](O)[C@H]1O (some centres not stated) [Raffinose]

collision cross section (N2) ([2]; [M+Na]+): 293.8 Å²
SMILES: CCCCCCCCCCCCC=CC[C@@H](O)[C@H](CO[C@@H]1O[C@H](CO)[C@@H](O)C(O)C1O)NC(=O)CCCCCCCCCCCCCCCCCCC (some centres not stated) [GlcCer(38:1)]

collision cross section (N2) [4]: 203.23 Å²
collision cross section (N2) ([2]; [M+Cs]+): 205.8 Å²
collision cross section (N2) ([2]; [M+H]+): 202.6 Å²
collision cross section (N2) ([2]; [M+K]+): 221.9 Å²
collision cross section (N2) ([2]; [M+Li]+): 202.9 Å²
collision cross section (N2) ([2]; [M+Na]+): 202.7 Å²
collision cross section (N2) ([2]; [M+Rb]+): 204.1 Å² and 219.2 Å²
SMILES: OC[C@H]1O[C@@](CO)(O[C@H]2O[C@H](CO)[C@@H](O)[C@H](O)[C@H]2O)[C@@H](O[C@H]2O[C@H](CO)[C@@H](O)[C@H](O)[C@H]2O)[C@@H]1O [Melezitose]

collision cross section (N2) ([2]; [M+Na]+): 276.3 Å²
SMILES: CC/C=C\C/C=C\C/C=C\C/C=C\CCCCC(=O)O[C@H](COC(=O)CCCCCCC/C=C\C/C=C\CCCCC)COP(=O)(O)OCCN [PE(36:6)]

collision cross section (N2) ([2]; [M+Na]+): 299.2 Å²
SMILES: CC/C=C\C/C=C\C/C=C\C/C=C\C/C=C\C/C=C\CCC(=O)OC[C@H](COP(=O)(O)OC[C@H](N)C(=O)O)OC(=O)CCCCCCC/C=C\CCCCCCCCC [PS(41:7)]

collision cross section (N2) ([2]; [M+Na]+): 299.9 Å²
SMILES: CC/C=C\C/C=C\C/C=C\C/C=C\C/C=C\CCCC(=O)O[C@H](COC(=O)CCCC/C=C\C/C=C\C/C=C\CCCCC)COP(=O)([O-])OCC[N+](C)(C)C [PC(38:8)]

collision cross section (N2) ([2]; [M+H]+): 275.6 Å²
SMILES: CC(C)C[C@H](NC(=O)[C@H](CC(C)C)NC(=O)[C@H](CCC(N)=O)NC(=O)[C@H](CC(N)=O)NC(=O)[C@@H](N)CC(C)C)C(=O)N[C@@H](CCCNC(=N)N)C(=O)O [LNQLLR]

collision cross section (N2) ([2]; [M+H]+): 249 Å²
SMILES: CC(C)C[C@H](NC(=O)[C@H](CO)NC(=O)[C@@H](N)C(C)C)C(=O)N[C@@H](C)C(=O)N[C@@H](CCC(=O)O)C(=O)N[C@@H](CCCCN)C(=O)O [VSLAEK]

collision cross section (N2) ([2]; [M+K]+): 304.7 Å²
SMILES: CC/C=C\C/C=C\C/C=C\C/C=C\C/C=C\CCCCCC(=O)O[C@H](COC(=O)CCCCCCCCCCCCCCCC)COP(=O)([O-])OCC[N+](C)(C)C [PC(39:5)]

collision cross section (N2) ([2]; [M+Na]+): 292.8 Å²
SMILES: CCCCC/C=C\C/C=C\C/C=C\C/C=C\CCCCCC(=O)O[C@H](COC(=O)CCCCCCCCCCCCCCCC)COP(=O)(O)OCCN [PE(39:4)]

SMILES: CCCCC/C=C\C/C=C\C/C=C\C/C=C\CCCC(=O)O[C@H](COC(=O)CCCCCCCCCCCCCCC)COP(=O)(O)OC[C@H](N)C(=O)O [PS(36:4)]
collision cross section (N2) ([2]; [M+Na]+): 287.8 Å²

collision cross section (N2) ([2]; [M+Na]+): 312 Å²
SMILES: CCCCCCCCCCCCC=CC[C@@H](O)[C@H](COP(=O)([O-])OCC[N+](C)(C)C)NC(=O)CC=CCC=CCCCCCCCCCCCCCCCCCCC [SM(44:3)]

collision cross section (N2) ([2]; [M+Na]+): 275.9 Å²
SMILES: CC/C=C\C/C=C\C/C=C\C/C=C\CCCCC(=O)O[C@H](COCCCCCCCCCCCCCCCC)COP(=O)(O)OCCN [PE(o34:4)]

collision cross section (N2) ([2]; [M+H]+): 261.8 Å² and 254 Å²
SMILES: CC(C)C[C@H](NC(=O)[C@H](C)NC(=O)[C@H](CO)NC(=O)[C@@H](N)C(C)C)C(=O)N[C@@H](Cc1ccc(O)cc1)C(=O)N[C@@H](CCCCN)C(=O)O [VSALYK]

collision cross section (N2) ([2]; [M+Na]+): 310.7 Å²
SMILES: CCCCCCCCCCCCC=CC[C@@H](O)[C@H](CO[C@@H]1O[C@H](CO)[C@@H](O)C(O)C1O)NC(=O)CC=CCC=CCCCCCCCCCCCCCCCCCCC (some centres not stated) [GlcCer(44:3)]

collision cross section (N2) ([2]; [M+Na]+): 281.7 Å²
SMILES: CCCCCCCCCCCCCCCC(=O)N[C@@H](CO[C@@H]1O[C@H](CO)[C@@H](O)C(O)C1O)[C@H](O)CCCCCCCCCCCCCCC (some centres not stated) [GlcCer(34:0)]

collision cross section (N2) ([1]; [M+H]+): 286.4 Å²
collision cross section (N2) ([2]; [M+K]+): 297.7 Å²
SMILES: CCCCCCC/C=C\CCCCCCCC(=O)OC[C@H](COP(=O)([O-])OCC[N+](C)(C)C)OC(=O)CCCCCCC/C=C\CCCCCCCC [PC(35:2)]

collision cross section (N2) ([2]; [M+Na]+): 315.1 Å²
SMILES: CCCCCCCCCCCCC=CC[C@@H](O)[C@H](COP(=O)([O-])OCC[N+](C)(C)C)NC(=O)CCCCCCCCCCCCCCCCCCCCCCCCC [SM(44:1)]

collision cross section (N2) ([2]; [M+H]+): 248.1 Å²
SMILES: CCC(C)[C@H](NC(=O)[C@H](CC(N)=O)NC(=O)[C@H](C)N)C(=O)N[C@@H](CC(=O)O)C(=O)N[C@H](C(=O)N[C@@H](CCCCN)C(=O)O)C(C)C (some centres not stated) [ANIDVK]

collision cross section (N2) ([2]; [M+K]+): 287.5 Å²
SMILES: CCCCC/C=C\C/C=C\C/C=C\CCCCC(=O)O[C@H](COC(=O)CCCCCCC/C=C\CCCCC)COP(=O)([O-])OCC[N+](C)(C)C [PC(33:4)]

collision cross section (N2) ([2]; [M+K]+): 277.2 Å²
SMILES: CCCCCCCCCCCCCCCCC(=O)O[C@H](COC(=O)CCCCCCCCCCCCCCC)COP(=O)(O)OCCN [PE(33:0)]
